In one series the target is T1, MMP-1 (Homo sapiens, UniProt P03956).
T1 construct: purchased abcam ab139443
T1 sequence (P03956 100-269 limits assumed): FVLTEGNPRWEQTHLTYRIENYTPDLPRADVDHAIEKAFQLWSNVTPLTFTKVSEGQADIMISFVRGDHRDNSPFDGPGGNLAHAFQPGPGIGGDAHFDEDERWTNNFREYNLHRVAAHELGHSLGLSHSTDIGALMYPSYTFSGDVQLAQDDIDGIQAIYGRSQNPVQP
The series is described as follows: MMP-1 inhibitory colorimetric assay (MMP1 Inhibitor Screening Assay Kit ab139443). The format is biochemical. To be noted: for IC50: colorimetric assay, A412nm, mean ± standard deviation of triplicated samples; for inhibitory activity against MMP-1 in words: at a 100 µM concentration. The procedure:
We next examined the inhibitory activity of the synthesized compounds 3–6 against MMP-1 using a colorimetric assay. This assay was performed using the MMP-1 Inhibitor Screening Assay Kit (ab139443) according to the manufacturer’s protocols. The reaction was started by the addition of the diluted MMP-1 substrate. The continuous absorbance of the wells was measured at A412nm using a microplate reader.
MMP-1 inhibitory assay was performed using the assay kit according to the manufacturer’s protocol. A 96-well clear microplate (1/2 volume), 30.6 U/µL of MMP-1 enzyme, MMP-1 substrate (25 mM in DMSO), and colorimetric assay buffer were contained in MMP1 Inhibitor Screening Assay Kit (ab139443, abcam). 2-[(2-Methylpropyl)[(4-methoxyphenyl)sulfonyl]amino]acetohydroximic acid (NNGH) was used as a positive control of an MMP-1 inhibitor. The MMP-1 substrate and DMSO solution of compound were thawed at room temperature. A compound (10 mM in DMSO) was diluted at 1/200 in assay buffer and brought to 37 °C. Also, the MMP-1 substrate was diluted at 1/200 in assay buffer and brought to 37 °C. The MMP-1 enzyme was diluted at 1/25 in assay buffer and warmed up to 37 °C as soon as the assay was started. After the assay buffer was pipetted appropriately into each well, 20 µL of the prepared MMP-1 enzyme solution and the desired concentration of test inhibitor solutions (20 µL; final concentrations: 0.1–100 µM) were added to the wells. The microplate was incubated for 30 min at 37 °C. The 10 µL of the prepared MMP-1 substrate solution was added into each well to allow the reaction start. The absorbance of the wells was measured at A412nm using a microplate reader every 1 min, and data analysis was performed.

SMILES strings stand for the structures.

Turning to `C[C@H](C(=O)NO)N1CC[C@@](C)(c2ccc(C(F)(F)F)cc2)C1=O` [Compound 4, (R)-N-hydroxy-2-((S)-3-methyl-2-oxo-3-(4-(trifluoromethyl)phenyl)pyrrolidin-1-yl)propanamide], it took 0.18 ± 0.03 µM to reach half-maximal inhibition against MMP-1 (IC50). The “fold higher MMP-1 inhibitory activity (fold lower IC50) of compound 4 relative to compound 3” value on MMP-1 (ratio of IC50 values, compound 3 vs compound 4) was 60 fold.
At MMP-1, `C[C@H](C(=O)NO)N1CC[C@@](C)(c2ccccc2)C1=O` [Compound 5, (R)-N-hydroxy-2-((S)-3-methyl-2-oxo-3-phenylpyrrolidin-1-yl)propanamide] displayed an IC50 of 1.54 ± 0.08 µM.
`C[C@H](C(=O)NO)N1CC[C@@](C)(c2ccc(-c3ccccc3)cc2)C1=O` [Compound 3, (R)-2-((S)-3-([1,1′-biphenyl]-4-yl)-3-methyl-2-oxopyrrolidin-1-yl)-N-hydroxypropanamide] had a melting point of 160 to 162 °C. Moreover, inhibition on MMP-1 was half-maximal at 11.5 ± 1.3 µM (IC50).
As to `C[C@H](C(=O)NO)N1CC[C@@](C)(c2cccc(C(F)(F)F)c2)C1=O` [Compound 6, (R)-N-hydroxy-2-((S)-3-methyl-2-oxo-3-(3-(trifluoromethyl)phenyl)pyrrolidin-1-yl)propanamide], the IC50 against MMP-1 stood at 11.1 ± 0.5 µM.
`C[C@H](C(=O)NO)N1CC[C@](C)(c2ccc(C(F)(F)F)cc2)C1=O` [4′, (R)-N-hydroxy-2-((R)-3-methyl-2-oxo-3-(4-(trifluoromethyl)phenyl)pyrrolidin-1-yl)propanamide] came in with a melting point of 105 to 107 °C. For the same compound, on MMP-1, the “inhibitory activity against MMP-1 in words” value is listed as “did not display significant inhibitory activity” and the IC50 is more than 100 µM.
On the same counts, the results for `C[C@H](C(=O)NO)N1CC[C@](C)(c2ccc(-c3ccccc3)cc2)C1=O` [3′, (R)-2-((R)-3-([1,1′-biphenyl]-4-yl)-3-methyl-2-oxopyrrolidin-1-yl)-N-hydroxypropanamide] are 137 to 138 °C, “did not display significant inhibitory activity” and more than 100 µM.

These data come from publication PMC7477548, “Prediction of an MMP-1 inhibitor activity cliff using the SAR matrix approach and its experimental validation” (Scientific Reports, 2020).
